The record followed here is patent publication US7799821B2, “Therapeutic compounds” (Allergan, Inc., priority 2004, dated 2010).

Data set [1] relates to Beagle dogs. The experiment in a line: Intraocular pressure (IOP) in dogs, pneumatonometry. The format is in vivo. Particulars: topical. The procedure: (§1) Intraocular pressure studies in dogs involved pneumatonometry performed in conscious, Beagle dogs of both sexes (10-15 kg). The animals remained conscious throughout the study and were gently restrained by hand. Drugs were administered topically to one eye as a 25 μL volume drop, the other eye received 25 μL vehicle (0.1% (w/v) polysorbate 80; 10 mM TRIS) as a control. Proparacaine (0.1% w/v) was used for corneal anesthesia during tonometry. Intraocular pressure was determined just before drug administration and at 2, 4 and 6 hr thereafter on each day of the 5 day study. Drug was administered immediately after the first IOP reading.
as §1, with “(0.1%” for “(0.1% (w/v)”, “80:10” for “80; 10”, “(0.1%)” for “(0.1% w/v)”

The subject of data set [2] is Beagle dogs. As to the kind of experiment: Ocular surface hyperemia, dogs. It is filed as in vivo. Particulars: score. The procedure:
(§2) Ocular surface hyperemia was visually assessed and scored according to a system typically used clinically.
(§3) Ocular surface hyperemia was evaluated at the same time points as intraocular pressure measurement. It should be noted that untreated dog eyes frequently have a pink/red tone. Thus, values of trace or even mild are not necessarily out of the normal range. Similar tests were used to determine ocular surface hyperemia on monkeys and rabbits.

For a further data set, the system named is monkeys. As to the kind of experiment: Intraocular pressure (IOP) in monkeys. It is filed as in vivo.
Another data set deals with rabbits. The experiment in a line: Ocular surface hyperemia, rabbits. The format is in vivo. Particulars: Conc. 0.10% (0.1%) g/100 mL, score. The procedure: as §2, §3
The target of another data set is T1, hFP (Homo sapiens, UniProt P43088).
T1 construct: expressed in transfected cells; host or cells: HEK-293(EBNA)
T1 sequence (P43088 whole entry): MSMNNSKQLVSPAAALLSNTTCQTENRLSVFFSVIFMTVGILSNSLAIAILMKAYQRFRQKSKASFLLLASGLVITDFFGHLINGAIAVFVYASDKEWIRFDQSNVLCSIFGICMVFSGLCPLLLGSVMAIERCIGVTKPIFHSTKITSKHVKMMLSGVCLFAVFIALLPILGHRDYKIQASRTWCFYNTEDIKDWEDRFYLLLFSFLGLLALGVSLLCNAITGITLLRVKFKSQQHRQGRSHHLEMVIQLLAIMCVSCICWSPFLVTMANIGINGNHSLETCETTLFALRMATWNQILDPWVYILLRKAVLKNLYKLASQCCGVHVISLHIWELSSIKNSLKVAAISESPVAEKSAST
The experiment in a line: FLIPR calcium signal, hFP. The format is cell-based. Particulars: Table 3, third part. The procedure:
(§4) HEK-293(EBNA) cells, stably expressing one type or subtype of recombinant human prostaglandin receptors (prostaglandin receptors expressed: hDP/Gqs5; hEP1; hEP2/Gqs5; hEP3A/Gqi5; hEP4/Gqs5; hFP; hIP; hTP), were cultured in 100 mm culture dishes in high-glucose DMEM medium containing 10% fetal bovine serum, 2 mM 1-glutamine, 250 μg/ml geneticin (G418) and 200 μg/ml hygromycin B as selection markers, and 100 units/ml penicillin G, 100 μg/ml streptomycin and 0.25 μg/ml amphotericin B. • (b) Calcium Signal Studies on the FLIPR™
(§5) Cells were seeded at a density of 5×10^4 cells per well in Biocoat® Poly-D-lysine-coated black-wall, clear-bottom 96-well plates (Becton-Dickinson) and allowed to attach overnight in an incubator at 37° C. Cells were then washed two times with HBSS-HEPES buffer (Hanks Balanced Salt Solution without bicarbonate and phenol red, 20 mM HEPES, pH 7.4) using a Denley Cellwash plate washer (Labsystems). After 45 minutes of dye-loading in the dark, using the calcium-sensitive dye Fluo-4 AM at a final concentration of 2 μM, plates were washed four times with HBSS-HEPES buffer to remove excess dye leaving 100 μl in each well. Plates were re-equilibrated to 37° C. for a few minutes.
(§6) Cells were excited with an Argon laser at 488 nm, and emission was measured through a 510-570 nm bandwidth emission filter (FLIPR™, Molecular Devices, Sunnyvale, Calif.). Drug solution was added in a 50 μl volume to each well to give the desired final concentration. The peak increase in fluorescence intensity was recorded for each well. On each plate, four wells each served as negative (HBSS-HEPES buffer) and positive controls (standard agonists: BW245C (hDP); PGE2 (hEP1; hEP2/Gqs5; hEP3A/Gqi5; hEP4/Gqs5); PGF2α (hFP); carbacyclin (hIP); U-46619 (hTP), depending on receptor). The peak fluorescence change in each drug-containing well was then expressed relative to the controls.
Compounds were tested in a high-throughput (HTS) or concentration-response (CoRe) format. […]

A further data set deals with T2, hEP1 (Homo sapiens, UniProt P34995).
T2 construct: expressed in transfected cells; host or cells: HEK-293(EBNA)
T2 sequence (P34995 1-402): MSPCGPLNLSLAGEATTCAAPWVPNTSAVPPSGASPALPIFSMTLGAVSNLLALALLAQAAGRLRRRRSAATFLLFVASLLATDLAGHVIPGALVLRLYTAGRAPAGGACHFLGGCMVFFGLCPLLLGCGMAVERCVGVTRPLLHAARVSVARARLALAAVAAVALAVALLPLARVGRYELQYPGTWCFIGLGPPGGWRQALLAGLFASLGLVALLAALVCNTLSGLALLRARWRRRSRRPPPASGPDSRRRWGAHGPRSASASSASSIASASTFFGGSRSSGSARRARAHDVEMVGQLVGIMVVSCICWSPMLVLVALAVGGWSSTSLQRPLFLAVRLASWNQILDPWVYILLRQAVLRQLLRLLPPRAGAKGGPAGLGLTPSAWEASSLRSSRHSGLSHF
The experiment in a line: FLIPR calcium signal, hEP1. It is filed as cell-based. Particulars: Table 3, third part. How it is done: as §4, §5, §6
(§7) Compounds were tested in a high-throughput (HTS) or concentration-response (CoRe) format. In the HTS format, forty-four compounds per plate were examined in duplicates at a concentration of 10^−5 M. To generate concentration-response curves, four compounds per plate were tested in duplicates in a concentration range between 10^−5 and 10^−11 M. The duplicate values were averaged. In either, HTS or CoRe format each compound was tested on at least 3 separate plates using cells from different passages to give an n≧3.

The target of the next data set is T3, hEP4/Gqs5 (Homo sapiens, UniProt P35408).
T3 construct: expressed in transfected cells; host or cells: HEK-293(EBNA)
T3 sequence (P35408 whole entry): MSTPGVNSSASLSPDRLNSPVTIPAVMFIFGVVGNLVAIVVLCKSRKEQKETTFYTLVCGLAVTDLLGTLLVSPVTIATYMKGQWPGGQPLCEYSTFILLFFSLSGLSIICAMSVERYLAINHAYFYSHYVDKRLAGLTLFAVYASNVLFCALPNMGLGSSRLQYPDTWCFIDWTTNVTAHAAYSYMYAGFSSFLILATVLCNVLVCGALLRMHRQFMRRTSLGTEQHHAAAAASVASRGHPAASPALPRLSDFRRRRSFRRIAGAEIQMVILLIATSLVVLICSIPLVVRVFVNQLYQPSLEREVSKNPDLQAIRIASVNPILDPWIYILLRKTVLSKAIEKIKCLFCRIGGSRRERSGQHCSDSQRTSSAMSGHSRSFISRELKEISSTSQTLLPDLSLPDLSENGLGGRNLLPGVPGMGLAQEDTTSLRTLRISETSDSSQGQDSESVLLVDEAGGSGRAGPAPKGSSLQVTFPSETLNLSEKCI
As to the kind of experiment: FLIPR calcium signal, hEP4. The format is cell-based. Particulars: Table 3, third part; read-out: Ca2+ Signal-EC50 (nM) EP4. The method in brief: (§8)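 HEK-293(EBNA) cells stably expressing the recombinant human receptor were loaded with 2 μM Fluo-4 AM for 45 min and read on FLIPR at 37° C in HBSS-HEPES pH 7.4. Peak fluorescence rise was expressed relative to buffer and standard agonist controls (BW245C, PGE2 or U-46619 by receptor); compounds were run 10^−5 to 10^−11 M in duplicate, n≧3.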

The target in another data set is T4, hTP (Homo sapiens, UniProt P21731).
T4 construct: expressed in transfected cells; host or cells: HEK-293(EBNA)
T4 sequence (P21731 1-343): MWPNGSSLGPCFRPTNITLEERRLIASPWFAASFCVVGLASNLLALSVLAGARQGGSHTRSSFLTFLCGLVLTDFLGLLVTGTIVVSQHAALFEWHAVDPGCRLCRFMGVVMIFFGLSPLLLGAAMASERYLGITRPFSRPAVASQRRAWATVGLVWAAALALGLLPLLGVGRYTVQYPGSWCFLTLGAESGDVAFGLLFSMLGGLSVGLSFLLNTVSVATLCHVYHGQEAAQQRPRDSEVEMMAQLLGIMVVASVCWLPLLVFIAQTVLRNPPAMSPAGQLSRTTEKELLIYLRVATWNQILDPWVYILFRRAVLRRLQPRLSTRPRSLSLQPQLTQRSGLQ
As to the kind of experiment: FLIPR calcium signal, hTP. The format is cell-based. Particulars: Table 3, third part. How it is done:
as §4, §5, §6, §7

For another data set, the target named is T5, hIP (Homo sapiens, UniProt P43119).
T5 construct: expressed in transfected cells; host or cells: HEK-293(EBNA)
T5 sequence (P43119 whole entry): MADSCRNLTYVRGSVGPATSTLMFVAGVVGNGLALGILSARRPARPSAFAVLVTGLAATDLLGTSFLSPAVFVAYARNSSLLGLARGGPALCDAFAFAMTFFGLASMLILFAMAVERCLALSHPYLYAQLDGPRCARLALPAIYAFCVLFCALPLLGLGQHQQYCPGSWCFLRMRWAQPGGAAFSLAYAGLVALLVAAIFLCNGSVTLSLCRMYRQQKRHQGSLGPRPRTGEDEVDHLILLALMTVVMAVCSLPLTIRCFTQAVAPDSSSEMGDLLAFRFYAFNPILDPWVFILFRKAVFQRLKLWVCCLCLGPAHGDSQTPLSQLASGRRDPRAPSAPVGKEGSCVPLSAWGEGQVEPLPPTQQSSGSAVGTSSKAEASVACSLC
The experiment in a line: FLIPR calcium signal, hIP. Particulars: Table 3, third part. It is filed as cell-based. How it is done: as §4, §5, §6, §7

A further data set concerns the target T6, HEP3 (Homo sapiens, UniProt P43115).
T6 sequence (P43115 1-390): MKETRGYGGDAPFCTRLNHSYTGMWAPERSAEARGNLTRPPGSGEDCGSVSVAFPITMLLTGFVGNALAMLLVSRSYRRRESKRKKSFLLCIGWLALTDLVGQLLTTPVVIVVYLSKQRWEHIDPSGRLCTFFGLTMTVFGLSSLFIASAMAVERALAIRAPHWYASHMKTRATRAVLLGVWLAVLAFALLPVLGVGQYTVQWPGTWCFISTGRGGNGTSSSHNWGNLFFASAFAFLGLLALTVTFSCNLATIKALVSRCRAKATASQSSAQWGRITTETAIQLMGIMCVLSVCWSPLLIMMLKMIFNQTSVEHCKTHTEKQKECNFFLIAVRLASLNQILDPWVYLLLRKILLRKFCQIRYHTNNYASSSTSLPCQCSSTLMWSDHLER
As to the kind of experiment: Radioligand binding, EP3. Particulars: printed in the HEP3 binding column; read-out: Ki (marked "Ki" in BINDING HEP3).

For a further data set, the target named is T7, hEP2/Gqs5 (Homo sapiens, UniProt P43116).
T7 construct: expressed in transfected cells; host or cells: HEK-293(EBNA)
T7 sequence (P43116 whole entry): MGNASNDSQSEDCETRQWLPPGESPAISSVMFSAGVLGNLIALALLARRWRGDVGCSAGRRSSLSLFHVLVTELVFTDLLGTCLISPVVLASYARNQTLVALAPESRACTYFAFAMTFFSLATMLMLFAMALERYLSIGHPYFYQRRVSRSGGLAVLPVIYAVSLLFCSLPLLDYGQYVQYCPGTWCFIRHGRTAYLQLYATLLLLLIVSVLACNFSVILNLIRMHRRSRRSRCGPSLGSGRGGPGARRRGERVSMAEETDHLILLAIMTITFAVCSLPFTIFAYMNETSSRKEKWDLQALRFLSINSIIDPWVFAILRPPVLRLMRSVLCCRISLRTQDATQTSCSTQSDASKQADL
The experiment in a line: FLIPR calcium signal, hEP2. The format is cell-based. Particulars: FLIPR Ca2+ signal, HEK-293(EBNA); read-out: FUNCTIONAL EC50 HEP2. The procedure, abridged: as §8

Consider `CC(C)OC(=O)CCC/C=C\C[C@@H]1[C@@H](c2ccc(C(O)C3CCCCC3)cc2)[C@H](O)C[C@H]1Cl` (stereo partly drawn), for which the “DOG Max. ΔIOP (mm Hg)” value with Beagle dogs [1] (Conc. 0.01% g/100 mL) was −4 mm Hg. Besides, the “DOG Max. hyperemia” value with Beagle dogs [2] (Conc. 0.01% g/100 mL) was 0.6. Besides, in the data set on monkeys (Conc. 0.01% g/100 mL), the “MONKEY Max. ΔIOP (mm Hg)” value is 5 mm Hg.
Consider `CC(C)OC(=O)CCC/C=C\C[C@@H]1[C@@H](c2ccc3c(c2)CCC3O)[C@H](O)C[C@H]1Cl` (stereo partly drawn), for which the “DOG Max. ΔIOP (mm Hg)” value in the data set on Beagle dogs [1] (Conc. 0.10% (0.1%) g/100 mL) is −12 mm Hg. Besides, in the data set on rabbits, the “RABBIT Max. hyperemia” value came to 0.25.
As to `CCCCCC(O)c1ccc([C@@H]2[C@@H](C/C=C\CCCC(=O)O)[C@H](Cl)C[C@@H]2Cl)cc1` (stereo partly drawn), the “Ca2+ Signal-EC50 (nM) FP” value on hFP is “not active”. The “Ca2+ Signal-EC50 (nM) EP1” value at hEP1 is reported as “not active”. The EC50 (commonly the concentration at which the effect is half-maximal) at hEP4/Gqs5 is 10000 nM. In addition, the “Ca2+ Signal-EC50 (nM) TP” value on hTP is given as “not active”. The “Ca2+ Signal-EC50 (nM) IP” value on hIP is given as “not active”.
For the molecule `CC(C)OC(=O)CCC/C=C\C[C@@H]1[C@@H](c2ccc(C(C)(C)CO)cc2)[C@H](O)C[C@H]1Cl`, the “DOG Max. ΔIOP (mm Hg)” value in the data set on Beagle dogs [1] (Conc. 0.10% (0.1%) g/100 mL) was −5 mm Hg. For the same molecule, in the data set on Beagle dogs [2] (Conc. 0.10% (0.1%) g/100 mL), the “DOG Max. hyperemia” value is 0.7. Also, in the data set with rabbits, the “RABBIT Max. hyperemia” value stood at 0.1. For the same molecule, the “MONKEY Max. ΔIOP (mm Hg)” value with monkeys (Conc. 0.10% (0.1%) g/100 mL) is 6 mm Hg.
As for `CC(C)C(O)c1ccc([C@@H]2[C@@H](C/C=C\CCCC(=O)O)[C@H](Cl)C[C@H]2O)cc1` (stereo partly drawn), the Ki (usually the dissociation constant of the complex between target and ligand, obtained from inhibition or displacement) on HEP3 was 1.34 µM. The EC50 at hEP2/Gqs5 was 0.497 µM.
For `CC(C)C(O)c1ccc([C@@H]2[C@@H](CCCCCCC(=O)O)[C@H](Cl)C[C@H]2O)cc1` (stereo partly drawn), the inhibitory constant (Ki) at HEP3 came to 3.02 µM. In addition, at hEP2/Gqs5, the EC50 was more than 10 µM.
`CCCCCC(O)c1ccc([C@@H]2[C@@H](C/C=C\CCCC(=O)OC(C)C)[C@H](Cl)C[C@H]2Cl)cc1` (stereo partly drawn): in the data set on Beagle dogs [1] (Conc. 0.10% (0.1%) g/100 mL), the “DOG Max. ΔIOP (mm Hg)” value was −12 mm Hg. Moreover, the “DOG Max. hyperemia” value in the data set on Beagle dogs [2] (Conc. 0.10% (0.1%) g/100 mL) is given as 0.6. Moreover, the “RABBIT Max. hyperemia” value with rabbits is on record as 0.0. For the same molecule, in the data set on monkeys (Conc. 0.10% (0.1%) g/100 mL), the “MONKEY Max. ΔIOP (mm Hg)” value amounted to 19 mm Hg.
In the case of `CCCCCC(=O)c1ccc([C@@H]2[C@@H](C/C=C\CCCC(=O)O)[C@H](Cl)C[C@H]2O)cc1`, the “DOG Max. hyperemia” value in the data set with Beagle dogs [2] (Conc. 0.10% (0.1%) g/100 mL) was 2.0. For the same molecule, in the data set on monkeys (Conc. 0.10% (0.1%) g/100 mL), the “MONKEY Max. ΔIOP (mm Hg)” value is 31 mm Hg.
